Patent US20110293518A1 (GE HEALTHCARE LIMITED, priority 2005, published 2011)

How the values were obtained:
[1] = Pilot PET experiments in patients with bacterial abscesses; assay type: in vivo, human; settings: small pilot series in patients
[2] = Frozen section autoradiography / in vitro binding on tissue slices; set-up: species or system human; settings: for tracer binding in inflammatory tissues in vitro: about 20 micrometer slices, about 2 nM tracer, about 40 minutes, room temperature
Procedure: There are various hypothesis as to what biological mechanisms are behind the high uptake of DDE in inflammatory joint tissues of humans.
The in vitro binding experiments were performed on thin slices of tissue of about 20 micrometers in rats and in humans. The thin slices of tissues were adhered to gelatinized slide glasses. […] After incubation the slide glasses were washed about 3 times in a buffer, dried, and exposed on phosphor imaging plates for a minimum of 60 minutes.

[3] = PET with DDE (and GLD) in patients with whiplash associated disorder (WAD); assay type: in vivo, human; settings: for increase of uptake at cervical vertebrae 2 and 3 (insertion in m. semispinalis capitis): one case
Source text: Clinically, those patients with a higher uptake of DDE in the affected joint areas seem to report high pain ratings while being in the scanner.
In a similar experiment, sixteen patients were investigated using a high resolution PET scanner.
In the […] experiments, local uptake was present in all cases in the parotis and submandibularis glandulae. Differences between patients were found in areas related to the insertion of muscles to the occipital bone, vertebrae and clavicula.

[4] = PET-CT with DDE in healthy subjects; assay type: in vivo, human; settings: eight healthy subjects
Source text: In a third experiment eight healthy subjects were investigated using a PET-CT (Computerized Tomography) scanner. PET/CT combines the strengths of two well-established imaging modalities, PET for function and CT for anatomy, into a single imaging device. The subjects were free from pain in the neck and shoulder regions during at least two months and they had not been involved in accidents which could have caused a neck injury.

[5] = PET with DDE in inflamed joints (rheumatoid arthritis patients); assay type: in vivo, human

Structure (SMILES) | increase of tracer uptake in bacterial abscesses [1] | tracer binding in inflammatory tissues in vitro [2] | increase of uptake at cervical vertebrae 2 and 3 (insertion in m. semispinalis capitis) [3] | binding in frozen section autoradiography ([2]; various tissues) | increased uptake in scanned neck and shoulder regions [4] | increase in uptake compared with the cerebellum, insertion of m. rectus capitis posterior major ([3]; bilaterally in 3 patients, normalized to inferior part of the cerebellum) | binding of tracer to soft tissue in the neck vertebra ([3]; four of eight WAD patients, PET) | difference in uptake between right and left side ([3]; fourth patient, no clear increase) [%] | patients with increased uptake in the neck and shoulder areas ([3]; sixteen patients, high resolution PET scanner) | uptake and retention on swollen synovial tissue ([5]; inflamed synovial joints) | uptake in affected joint after intra-articular injections of glucocorticoids ([5]; observed 6-14 days after treatment) | blocking of uptake in inflamed joint by Eldepryl (MAO-B blocking) ([5]; one patient re-examined after administration of Eldepryl) | activity in inflamed tissue as seen in PET images ([5]; patients with rheumatoid arthritis) | reduction of activity in inflamed tissue ([5]; the day after intra-articular administration of glucocorticoid) [%]
[11CH3]Oc1ccc(-n2nnnc2C(F)(F)F)cc1CN[C@H]1CCCN[C@H]1c1ccccc1 [GLD, [^11C]-GR205171] | no visible increase | very high | approximately 70% |  |  |  |  |  |  |  |  |  |  | 
C#CCN([11CH3])[C@@H](C)Cc1ccccc1 [DDE, D-[methyl-^11C]-deprenyl] | no visible increase | very high | approximately 70% | much higher binding in inflamed joints than any other tissues | None of the subjects revealed an increased uptake | 57%-127% | appeared to bind to soft tissue in the neck vertebra | 40 | about 50% | very pronounced uptake and retention | significant diminishing of the uptake | no blocking effect | very high activity | 50
